The text below walks through data of patent publication US20080044805A1, “Biopolymer-Dye Complex and Use as a Bioassay” (STC.UNM, priority 2006, published 2008).

Data set [1] is described as follows: Hyaluronidase activity, scaffold destruction fluorescent assay. The format is biochemical. The following applies: hyaluronic acid substrate; estimated from maximal fluorescence of unreacted mix. As to the method: Hyaluronidase enzyme (11.3 U of E.C. 3.2.1.35) was mixed with 8 μg of hyaluronic acid in a total volume of 500 μL at 25° C. After 0, 20, 40, 60, 80, 100, 120 and 140 minutes, a portion of the reaction mixture was diluted into 20 μM concentrations of cyanine dye of Formula I dissolved in 20% methanol-80% water mixture dispensed into the wells of a 96 well microplate (Optiplate™-96, Perkin Elmer Life Sciences, Boston, Mass.) to a total volume of 275 μL. Sixty minutes after adding the reaction mixture to the cyanine solution, the fluorescence was measured using a Mithras LB 940 microplate spectrofluorometer (Berthold Instruments, Oak Ridge, Tenn.). The enzymatic reaction volume that was added to the cyanine dye solution represented approximately 364 ng of intact hyaluronic acid that might be present in the complete absence of enzymatic hydrolysis. This amount of hyaluronic was equivalent to the mid-point in the rise of the hyaluronic titration curve in FIG. 23. […] Hyaluronic acid in amounts of 0, 200, 400, 600, 800 and 1000 ng respectively were mixed with 1 U of hyaluronidase in a total volume of 100 μL. […] Based upon maximal fluorescence from reactions in which the enzyme and substrate were mixed but not allowed to react, it was estimated that hyaluronidase activity level reached a plateau between 60 to 80 minutes, representing 50% hydrolysis of the substrate.

The nature of data set [2]: Water solubility of the cyanine dye. The format is physicochemical. From the text: For fluorescence of the polymers in solution, J-aggregate fluorescence became prominent for polymers having at least 33 cationic polymer repeat units. The fluorescence of the polymer is subject to very strong “super-quenching” by oppositely charged electron acceptors and energy-transfer quenchers that equals or exceeds that observed for conjugated polyelectrolytes by the same kind of quenchers. […] In exemplary embodiments, a cyanine dye of formula I, below, is used.

As to hyaluronidase, the “hydrolysis of the substrate at plateau” value in data set [1] is 50%. Regarding `CCN1C(=Cc2sc3ccc(Cl)cc3[n+]2CC)Sc2ccc(Cl)cc21.[I-]` [cyanine dye of Formula I], the water solubility result in data set [2] was “moderate”.
